Test results: ChEMBL document CHEMBL5365426, “Modification of N-hydroxycytidine yields a novel lead compound exhibiting activity against the Venezuelan equine encephalitis virus” (Bioorg Med Chem Lett, 2023)

Legend:
[1] = tested on: Venezuelan equine encephalitis virus; test: Antiviral activity against Venezuelan equine encephalitis virus infected in human MRC5 cells assessed as virus induced cell death at 100 uM relative to control; format: functional
[2] = tested on: Venezuelan equine encephalitis virus; test: Antiviral activity against Venezuelan equine encephalitis virus infected in human MRC5 cells assessed as inhibition of viral infection at 100 uM relative to control; format: functional
[3] = tested on: Venezuelan equine encephalitis virus; test: Antiviral activity against Venezuelan equine encephalitis virus infected in human MRC5 cells assessed as inhibition of virus induced cytopathic effect; format: functional, organism-based
[4] = Cytotoxicity against human MRC-5 cells assessed as reduction in cell viability; format: toxicity, cell-based, MRC5
[5] = Safety index, ratio of CC50 for cytotoxicity against human MRC-5 cells to EC50 for antiviral activity against Venezuelan equine encephalitis virus infected in human MRC5 cells; format: toxicity, cell-based; settings: read-out: Ratio CC50/EC50

SMILES | Activity [1] | inhibition at 100 µM [2] | EC50 [3] | CC50 [4] | selectivity ratio [5]
CC(OCc1c[nH]c(=O)[nH]c1=O)c1ccccc1 (stereo unspecified) | 11.63% | 10.1% |  |  | 
O=c1[nH]c(=O)n([C@@H]2O[C@H](CO)[C@@H](O)[C@H]2O)cc1COC(c1ccccc1)C1CCCCC1 (stereo partly specified) | 16.28% | 15.9% |  |  | 
Cc1ccccc1C(OCc1cn([C@@H]2O[C@H](CO)[C@@H](O)[C@H]2O)c(=O)[nH]c1=N)C(C)(C)C (stereo partly specified) | 22.95% | 34.4% |  |  | 
CCC(OCc1cn([C@H]2O[C@H](CO)[C@@H](O)[C@H]2O)c(=O)[nH]c1=O)c1ccccc1 (stereo partly specified) | 20.81% | 26.3% |  |  | 
CC(C)C(OCc1cn([C@@H]2O[C@H](CO)[C@@H](O)[C@H]2O)c(=O)[nH]/c1=N\O)c1ccccc1 (stereo partly specified) | 9.54% | 16.5% |  |  | 
CC(OCc1cn([C@@H]2O[C@H](CO)[C@@H](O)[C@H]2O)c(=O)[nH]c1=O)c1ccccc1 (stereo partly specified) | 5.05% | 16.8% |  |  | 
O=c1[nH]cc(COCc2ccccc2Cl)c(=O)[nH]1 | 9.35% | 12.9% |  |  | 
CCC(OCc1cn([C@@H]2O[C@H](CO)[C@@H](O)[C@H]2O)c(=O)[nH]/c1=N\O)c1ccccc1 (stereo partly specified) | 4.87% | 10.5% |  |  | 
CCC(OCc1cn([C@@H]2O[C@H](CO)[C@@H](O)[C@H]2O)c(=O)[nH]c1=O)c1ccccc1 (stereo partly specified) | 8.2% | 22.1% |  |  | 
CC(OCc1cn([C@@H]2O[C@H](CO)[C@@H](O)[C@H]2O)c(=O)[nH]c1=N)c1ccccc1 (stereo partly specified) | 11.51% | 31% |  |  | 
CC(C)(C)C(OCc1cn([C@@H]2O[C@H](CO)[C@@H](O)[C@H]2O)c(=O)[nH]c1=O)c1ccccc1 (stereo partly specified) | 17.18% | 16.6% |  |  | 
CC(OCc1cn([C@H]2O[C@H](CO)[C@@H](O)[C@H]2O)c(=O)[nH]c1=O)c1ccccc1 (stereo partly specified) | 25.09% | 30.6% |  |  | 
O=c1[nH]c(=O)n([C@H]2O[C@H](CO)[C@@H](O)[C@H]2O)cc1COCc1ccccc1Cl | 12.73% | 18.8% |  |  | 
CC(C)C(OCc1cn([C@H]2O[C@H](CO)[C@@H](O)[C@H]2O)c(=O)[nH]c1=O)c1ccccc1 (stereo partly specified) | 17.19% | 20.5% |  |  | 
CCC(OCc1c[nH]c(=O)[nH]c1=O)c1ccccc1 (stereo unspecified) | 6.21% | 24.8% |  |  | 
CC(C)(C)C(OCc1c[nH]c(=O)[nH]c1=O)c1ccccc1 (stereo unspecified) | 4.02% | 11.7% |  |  | 
O=c1[nH]c(=O)n([C@@H]2O[C@H](CO)[C@@H](O)[C@H]2O)cc1COCc1ccccc1 | 22.88% | 25.5% |  |  | 
CC(C)(C)C(OCc1cn([C@@H]2O[C@H](CO)[C@@H](O)[C@H]2O)c(=O)[nH]c1=N)c1ccccc1Cl (stereo partly specified) | 18.8% | 29.3% |  |  | 
CC(C)(C)C(OCc1cn([C@@H]2O[C@H](CO)[C@@H](O)[C@H]2O)c(=O)[nH]/c1=N\O)c1ccccc1 (stereo partly specified) | 20.09% | 30.3% |  |  | 
O=c1[nH]c(=O)n([C@@H]2O[C@H](CO)[C@@H](O)[C@H]2O)cc1COCc1ccccc1Cl | 12.17% | 30.9% |  |  | 
CC(C)C(OCc1c[nH]c(=O)[nH]c1=O)c1ccccc1 (stereo unspecified) | 7.76% | 5.87% |  |  | 
O=c1[nH]cc(CO)c(=O)[nH]1 | 7.97% | 16.8% |  |  | 
O=c1[nH]cc(COC(c2ccccc2)C2CCCCC2)c(=O)[nH]1 (stereo unspecified) | 8.05% | 10.5% |  |  | 

SMILES | Activity [1] | inhibition at 100 µM [2] | EC50 [3] | CC50 [4] | selectivity ratio [5]
CC(C)C(OCc1cn([C@@H]2O[C@H](CO)[C@@H](O)[C@H]2O)c(=O)[nH]c1=N)c1ccccc1 (stereo partly specified) | 7.99% | 28.2% |  |  | 
Cc1ccccc1C(OCc1cn([C@@H]2O[C@H](CO)[C@@H](O)[C@H]2O)c(=O)[nH]c1=O)C(C)(C)C (stereo partly specified) | 27.83% | 34% |  |  | 
CC(C)(C)C(OCc1cn([C@@H]2O[C@H](CO)[C@@H](O)[C@H]2O)c(=O)[nH]c1=N)c1ccccc1 (stereo partly specified) | 10.91% | 13.1% |  |  | 
Cc1ccccc1C(OCc1cn([C@@H]2O[C@H](CO)[C@@H](O)[C@H]2O)c(=O)[nH]/c1=N\O)C(C)(C)C (stereo partly specified) | 18.59% | 24.4% |  |  | 
O=c1nc(NO)ccn1[C@@H]1O[C@H](CO)[C@@H](O)[C@H]1O [N-HYDROXYCYTIDINE] |  |  | 2.3 µM | 95.5 µM | 41.5
O=c1[nH]c(=O)n([C@H]2O[C@H](CO)[C@@H](O)[C@H]2O)cc1COCc1ccccc1 | 11.03% | 23% |  |  | 
N=c1[nH]c(=O)n([C@@H]2O[C@H](CO)[C@@H](O)[C@H]2O)cc1COCc1ccccc1Cl | 10.11% | 29% |  |  | 
N=c1[nH]c(=O)n([C@@H]2O[C@H](CO)[C@@H](O)[C@H]2O)cc1COCc1ccccc1 | 18.86% | 24.9% |  |  | 
N=c1[nH]c(=O)n([C@@H]2O[C@H](CO)[C@@H](O)[C@H]2O)cc1CO | 29.79% | 12.2% |  |  | 
Cc1ccccc1C(OCc1c[nH]c(=O)[nH]c1=O)C(C)(C)C (stereo unspecified) | 3.54% | 21.4% |  |  | 
CCC(OCc1cn([C@@H]2O[C@H](CO)[C@@H](O)[C@H]2O)c(=O)[nH]c1=N)c1ccccc1 (stereo partly specified) | 8.31% | 14.3% |  |  | 
CC(C)(C)C(OCc1c[nH]c(=O)[nH]c1=O)c1ccccc1Cl (stereo unspecified) | 4.74% | 11.6% |  |  | 
CC(C)(C)C(OCc1cn([C@@H]2O[C@H](CO)[C@@H](O)[C@H]2O)c(=O)[nH]c1=O)c1ccccc1Cl (stereo partly specified) | 20.09% | 37.2% |  |  | 
O=c1[nH]/c(=N\O)c(COCc2ccccc2Cl)cn1[C@@H]1O[C@H](CO)[C@@H](O)[C@H]1O | 6.38% | 41.1% |  |  | 
CC(C)C(OCc1cn([C@@H]2O[C@H](CO)[C@@H](O)[C@H]2O)c(=O)[nH]c1=O)c1ccccc1 (stereo partly specified) | 9.09% | 29% |  |  | 
O=c1[nH]/c(=N\O)c(COC(c2ccccc2)C2CCCCC2)cn1[C@@H]1O[C@H](CO)[C@@H](O)[C@H]1O (stereo partly specified) | 25.09% | 35.5% |  |  | 
O=c1[nH]/c(=N\O)c(COCc2ccccc2)cn1[C@@H]1O[C@H](CO)[C@@H](O)[C@H]1O | 16.09% | 12.4% |  |  | 
O=c1[nH]/c(=N\O)c(CO)cn1[C@@H]1O[C@H](CO)[C@@H](O)[C@H]1O | 4.99% | 5.24% |  |  | 
O=c1[nH]cc(COCc2ccccc2)c(=O)[nH]1 | 0.22% | 9.66% |  |  | 
N=c1[nH]c(=O)n([C@@H]2O[C@H](CO)[C@@H](O)[C@H]2O)cc1COC(c1ccccc1)C1CCCCC1 (stereo partly specified) | 17.83% | 24.9% |  |  | 
CC(C)(C)C(OCc1cn([C@@H]2O[C@H](CO)[C@@H](O)[C@H]2O)c(=O)[nH]/c1=N\O)c1ccccc1Cl (stereo partly specified) | 30.28% | 95.3% | 37.6 µM | 135 µM | 3.59
O=c1[nH]c(=O)n([C@@H]2O[C@H](CO)[C@@H](O)[C@H]2O)cc1CO | 11.71% | 17.4% |  |  | 
CC(OCc1cn([C@@H]2O[C@H](CO)[C@@H](O)[C@H]2O)c(=O)[nH]/c1=N\O)c1ccccc1 (stereo partly specified) | 5.54% | 10.5% |  |  | 
